In BindingDB's records for doi:10.1021/jm9904102 (Abbott Laboratories, 2000):

What was measured:
[1] = Inhibition of calcium ionophore (A-23187)-stimulated LTB4 formation in human neutrophil assay
[2] = target: T1, Polyunsaturated fatty acid 5-lipoxygenase (Homo sapiens, UniProt P09917); test: Inhibition of calcium ionophore (A-23187)-stimulated LTB4 formation in human neutrophil assay
T1 sequence (P09917 whole entry): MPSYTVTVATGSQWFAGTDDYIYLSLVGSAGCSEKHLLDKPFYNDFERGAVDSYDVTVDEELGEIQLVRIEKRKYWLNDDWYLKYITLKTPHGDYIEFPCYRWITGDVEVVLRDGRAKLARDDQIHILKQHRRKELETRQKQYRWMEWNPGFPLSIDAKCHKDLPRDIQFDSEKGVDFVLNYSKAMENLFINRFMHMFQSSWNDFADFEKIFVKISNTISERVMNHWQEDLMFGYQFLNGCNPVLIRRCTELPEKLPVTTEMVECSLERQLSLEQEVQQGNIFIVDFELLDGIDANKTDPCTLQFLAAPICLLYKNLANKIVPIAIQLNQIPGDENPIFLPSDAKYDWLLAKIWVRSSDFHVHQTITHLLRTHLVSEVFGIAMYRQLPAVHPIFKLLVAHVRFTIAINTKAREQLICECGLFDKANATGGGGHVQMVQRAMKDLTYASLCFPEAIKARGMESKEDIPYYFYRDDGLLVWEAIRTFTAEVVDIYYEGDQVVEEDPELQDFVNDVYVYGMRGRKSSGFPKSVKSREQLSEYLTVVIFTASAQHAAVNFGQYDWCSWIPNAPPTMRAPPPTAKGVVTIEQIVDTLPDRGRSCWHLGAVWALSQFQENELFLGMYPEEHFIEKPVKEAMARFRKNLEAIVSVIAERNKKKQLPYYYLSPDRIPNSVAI

Compound	IC50 [1] [nM]	IC50 [2] [nM]
CC(C)(C)Sc1c(CC(C)(C)C(=O)O)n(Cc2ccc(Cl)cc2)c2ccc(OCc3ccc4ccccc4n3)cc12 [MK-591]	8	–
Cc1nc(COc2ccc(C(O/N=C/C(=O)O)C3CCCCC3)cc2)cs1 (stereo not drawn) [{Cyclohexyl-[4-(2-methyl-thiazol-4-ylmethoxy)-phenyl]-methoxyimino}-acetic acid]	380	–
O=C(O)/C=N/OC(c1ccc(OCc2cnc3ccccc3n2)cc1)C1CCCCC1 (stereo not drawn) [{Cyclohexyl-[4-(quinoxalin-2-ylmethoxy)-phenyl]-methoxyimino}-acetic acid]	25	–
C/C(=N\OC(CC(C)(C)c1ccccc1)c1ccc(OCc2ccc3ccccc3n2)cc1)C(=O)O (stereo not drawn) [2-{3-Methyl-3-phenyl-1-[4-(quinolin-2-ylmethoxy)-phenyl]-butoxyimino}-propionic acid (0.25H2O)]	22	–
CCCCC(O/N=C/C(=O)O)c1ccc(OCc2ccc3ccccc3n2)cc1 (stereo not drawn) [{1-[4-(Quinolin-2-ylmethoxy)-phenyl]-pentyloxyimino}-acetic acid]	52	–
O=C(O)/C=N/OC(c1ccc(/C=C/c2ccc3ccccc3n2)cc1)C1CCCCC1 (stereo not drawn) [{Cyclohexyl-[4-(2-quinolin-2-yl-vinyl)-phenyl]-methoxyimino}-acetic acid (0.25H2O)]	91	–
O=C(O)/C=N/OC(c1ccc(OCc2nc3ccccc3s2)cc1Br)C1CCCCC1 (stereo not drawn) [{[4-(Benzothiazol-2-ylmethoxy)-2-bromo-phenyl]-cyclohexyl-methoxyimino}-acetic acid]	22	–
COc1cc(OCc2ccc3ccccc3n2)ccc1C(O/N=C/C(=O)O)C1CCCCC1 (stereo not drawn) [{Cyclohexyl-[2-methoxy-4-(quinolin-2-ylmethoxy)-phenyl]-methoxyimino}-acetic acid]	20	–
O=C(O)/C=N/OC(c1ccc(OCc2nc3cc(F)ccc3s2)cc1)C1CCCCC1 (stereo not drawn) [{Cyclohexyl-[4-(5-fluoro-benzothiazol-2-ylmethoxy)-phenyl]-methoxyimino}-acetic acid]	87	–
CC(C)(CC(O/N=C/C(=O)O)c1ccc(OCc2ccc3ccccc3n2)cc1)c1ccccc1 (stereo not drawn) [{3-Methyl-3-phenyl-1-[4-(quinolin-2-ylmethoxy)-phenyl]-butoxyimino}-acetic acid]	10	–
C/C(=N\OC(c1ccc(OCc2ccc3ccccc3n2)cc1SC1CCCCC1)C1CCCCC1)C(=O)O (stereo not drawn) [2-{Cyclohexyl-[2-cyclohexylsulfanyl-4-(quinolin-2-ylmethoxy)-phenyl]-methoxyimino}-propionic acid]	90	–
O=C(O)/C=N/OC(c1ccc(-c2ccc3ccccc3n2)cc1)C1CCCCC1 (stereo not drawn) [[Cyclohexyl-(4-quinolin-2-yl-phenyl)-methoxyimino]-acetic acid(0.25H2O)]	1200	–
Cc1cc(C(O/N=C/C(=O)O)C2CCCCC2)ccc1OCc1ccc2ccccc2n1 (stereo not drawn) [{Cyclohexyl-[3-methyl-4-(quinolin-2-ylmethoxy)-phenyl]-methoxyimino}-acetic acid (0.4H2O)]	20	–
O=C(O)/C=N/OC(c1ccc(OCc2nc3cc(F)ccc3s2)cc1Cl)C1CCCCC1 (stereo not drawn) [{[2-Chloro-4-(5-fluoro-benzothiazol-2-ylmethoxy)-phenyl]-cyclohexyl-methoxyimino}-acetic acid]	14	–
C/C(=N\OC(CCCc1ccc(F)cc1)c1ccc(OCc2ccc3ccccc3n2)cc1)C(=O)O (stereo not drawn) [2-{4-(4-Fluoro-phenyl)-1-[4-(quinolin-2-ylmethoxy)-phenyl]-butoxyimino}-propionic acid]	9	–
O=C(O)CSC(CCCc1ccc(Cl)cc1)c1ccc(OCc2ccc3ccccc3n2)cc1 [L-674636]	7	–

Next, values leading:

IC50 [1] [nM]	IC50 [2] [nM]	Compound
35	–	O=C(O)/C(Cc1ccccc1)=N/OC(c1ccc(OCc2ccc3ccccc3n2)cc1)C1CCCCC1 (stereo not drawn) [2-{Cyclohexyl-[4-(quinolin-2-ylmethoxy)-phenyl]-methoxyimino}-3-phenyl-propionic acid (H2O)]
13	–	C/C(=N\OC(c1ccc(OCc2ccc3ccccc3n2)cc1)C1CCCCCC1)C(=O)O (stereo not drawn) [2-{Cycloheptyl-[4-(quinolin-2-ylmethoxy)-phenyl]-methoxyimino}-propionic acid (0.5H2O)]
142	–	C=CCC(O/N=C(\C)C(=O)O)c1ccc(OCc2ccc3ccccc3n2)cc1 (stereo not drawn) [2-{1-[4-(Quinolin-2-ylmethoxy)-phenyl]-but-3-enyloxyimino}-propionic acid]
70	–	C/C(=N\O[C@@H](c1ccc(OCc2ccc3ccccc3n2)cc1)C1CCCCC1)C(=O)O
27	–	O=C(O)/C=N/OC(CC1CCCCC1)c1ccc(OCc2ccc3ccccc3n2)cc1 (stereo not drawn) [{2-Cyclohexyl-1-[4-(quinolin-2-ylmethoxy)-phenyl]-ethoxyimino}-acetic acid]
17	–	O=C(O)/C=N/OC(c1ccc(OCc2ccc3ccccc3n2)cc1)C1CCCCC1 (stereo not drawn) [{Cyclohexyl-[4-(quinolin-2-ylmethoxy)-phenyl]-methoxyimino}-acetic acid]
–	15	C/C(=N\OC(c1ccc(OCc2ccc3ccccc3n2)cc1)C1CCCCC1)C(=O)O (stereo not drawn) [S-E-2-{Cyclohexyl-[4-(quinolin-2-ylmethoxy)-phenyl]-methoxyimino}-propionic acid]
60	–	C/C(=N\OC(c1ccc(OCc2nc3ccccc3s2)cc1)C1CCCCC1)C(=O)O (stereo not drawn) [2-{[4-(Benzothiazol-2-ylmethoxy)-phenyl]-cyclohexyl-methoxyimino}-propionic acid (0.5H2O)]
20	–	C/C(CCC(=O)O)=N/OC(c1ccc(OCc2ccc3ccccc3n2)cc1)C1CCCCC1 (stereo not drawn)
17	–	C/C(CCC(=O)O)=N\OC(c1ccc(OCc2ccc3ccccc3n2)cc1)C1CCCCC1 (stereo not drawn) [(Z)-4-{Cyclohexyl-[4-(quinolin-2-ylmethoxy)-phenyl]-methoxyimino}-pentanoic acid]
20	–	C/C(=N\OC(c1ccc(OCc2nc(-c3ccccc3)cs2)cc1)C1CCCCC1)C(=O)O (stereo not drawn) [2-{Cyclohexyl-[4-(4-phenyl-thiazol-2-ylmethoxy)-phenyl]-methoxyimino}-propionic acid (0.5H2O)]
21	–	O=C(O)/C(=N/OC(c1ccc(OCc2ccc3ccccc3n2)cc1)C1CCCCC1)c1cccs1 (stereo not drawn) [(E)-{Cyclohexyl-[4-(quinolin-2-ylmethoxy)-phenyl]-methoxyimino}-thiophen-2-yl-acetic acid (2.5H2O)]
18	–	O=C(O)/C=N/OC(c1ccc(OCc2ccc3ccccc3n2)cc1)C1CCCCCC1 (stereo not drawn) [{Cycloheptyl-[4-(quinolin-2-ylmethoxy)-phenyl]-methoxyimino}-acetic acid]
20	–	C/C(=N\OCC(c1ccc(OCc2ccc3ccccc3n2)cc1)C1CCCCC1)C(=O)O (stereo not drawn) [2-{2-Cyclohexyl-2-[4-(quinolin-2-ylmethoxy)-phenyl]-ethoxyimino}-propionic acid]
31	–	O=C(O)c1ccc(/C=N/OC(c2ccc(OCc3ccc4ccccc4n3)cc2)C2CCCCC2)cc1 (stereo not drawn) [4-({Cyclohexyl-[4-(quinolin-2-ylmethoxy)-phenyl]-methoxyimino}-methyl)-benzoic acid]
30	–	O=C(O)/C=N/OC(c1ccc(OCc2ccc3ccccc3n2)cc1)C1CCCC1 (stereo not drawn) [{Cyclopentyl-[4-(quinolin-2-ylmethoxy)-phenyl]-methoxyimino}-acetic acid]
8	–	C/C(=N\O[C@H](c1ccc(OCc2ccc3ccccc3n2)cc1)C1CCCCC1)C(=O)O
